Data taken from patent publication US20080113101A1, “ORGANIC-ELECTROLUMINESCENCE-MATERIAL-CONTAINING SOLUTION, METHOD FOR FORMING THIN FILM OF ORGANIC ELECTROLUMINESCENCE MATERIAL, THIN FILM OF ORGANIC ELECTROLUMINESCENCE MATERIAL AND ORGANIC ELECTROLUMINESCENCE DEVICE” (Idemitsu Kosan Co., Ltd., priority 2006, published 2008).

Experiment: Solubility Evaluation 1: solubility of host compounds in toluene
Type: physicochemical
Settings: host compounds
Procedure: Solubility Evaluation 1 was conducted by the following method.
(§1) A hundred mg of each compound was placed in a sample pot and the toluene as the solvent was added until the compound was dissolved. The solubility in the toluene was obtained from an amount of the added toluene.

solubility in toluene [wt %] | Structure (SMILES) | solubility in the toluene (in words)
 | c1ccc(-c2ccc(-c3ccccc3-c3c4ccccc4c(-c4c5ccccc5c(-c5ccccc5-c5ccc(-c6ccccc6)cc5)c5ccccc45)c4ccccc34)cc2)cc1 [Compound H9] | solubility capable of performing the thickness control of the films
5 | c1ccc(-c2ccccc2-c2ccc3c(-c4ccccc4)c4ccccc4c(-c4ccccc4)c3c2)cc1 [Compound H10] | 

Same assay, conditions: in toluene; 100 mg compound, toluene added until dissolved

Structure (SMILES) | Solubility (%)
c1ccc2cc(-c3ccc(-c4c5ccccc5c(-c5ccc(-c6cccc7ccccc67)cc5)c5ccccc45)cc3)ccc2c1 [Compound H1] | 2.0
c1cc(-c2ccc(-c3cccc4ccccc34)cc2)cc(-c2c3ccccc3c(-c3ccc(-c4cccc5ccccc45)cc3)c3ccccc23)c1 [Compound H2] | 2.0
c1ccc2cc(-c3ccc4cc(-c5c6ccccc6c(-c6ccc(-c7cccc8ccccc78)cc6)c6ccccc56)ccc4c3)ccc2c1 [Compound H3] | 2.0
c1ccc2cc(-c3c4ccccc4c(-c4ccc(-c5cccc6ccccc56)cc4)c4ccccc34)ccc2c1 [Compound H4] | 5.0
c1ccc(-c2cc(-c3ccc4ccccc4c3)cc(-c3c4ccccc4c(-c4ccc5ccccc5c4)c4ccccc34)c2)cc1 [Compound H5] | 5.0
c1cc(-c2ccc3ccccc3c2)cc(-c2c3ccccc3c(-c3cccc4ccccc34)c3ccccc23)c1 [Compound H6] | 0.25
c1cc(-c2ccc3ccccc3c2)cc(-c2c3ccccc3c(-c3ccc4cc(-c5ccc6ccccc6c5)ccc4c3)c3ccccc23)c1 [Compound H7] | 0.25
c1ccc(-c2ccc(-c3c4ccccc4c(-c4ccccc4)c4ccccc34)cc2)cc1 [Compound H8] | 0.2
c1ccc(-c2ccc(-c3ccccc3-c3c4ccccc4c(-c4c5ccccc5c(-c5ccccc5-c5ccc(-c6ccccc6)cc5)c5ccccc45)c4ccccc34)cc2)cc1 [Compound H9] | 1.4

Experiment: Solubility Evaluation 2: solubility of dopant compounds in toluene
Type: physicochemical
Settings: Table 2
Procedure: as §1

Structure (SMILES) | Solubility (%)
CC(C)c1ccc2c(N(c3ccc(-c4ccccc4)cc3)c3ccc4ccccc4c3)c3cc(CC4CCCCC4)ccc3c(N(c3ccc(-c4ccccc4)cc3)c3ccc4ccccc4c3)c2c1 [EM136] | 0.5
CCC(C)c1ccc(N(c2ccccc2)c2c3ccc(C(C)C)cc3c(N(c3ccccc3)c3ccc(C(C)CC)cc3)c3ccc(CC(C)(C)C)cc23)cc1 (centres unmarked) [EM137] | 1
Cc1ccc(N(c2ccc(C)cc2)c2c3ccc(C4CCCCC4)cc3c(N(c3ccc(C)cc3)c3ccc(C)cc3)c3ccc(C(C)C)cc23)cc1 [EM138] | 0.5
Cc1ccc(N(c2ccc(C)cc2)c2c3ccccc3c(N(c3ccc(C)cc3)c3ccc(C)cc3)c3cc(C(C)(C)C)ccc23)cc1 [EM139] | 0.5
Cc1ccc(N(c2ccc(C(C)(C)C)cc2)c2c3ccccc3c(N(c3ccc(C)cc3)c3ccc(C(C)(C)C)cc3)c3cc(C(C)C)ccc23)cc1 [EM140] | 0.5

The next lines start with the values.

Solubility (%) | Structure (SMILES)
0.5 | Cc1ccc(N(c2ccc(C(C)C)cc2)c2c3ccccc3c(N(c3ccc(C)cc3)c3ccc(C(C)C)cc3)c3cc(C(C)(C)C)ccc23)cc1 [EM141]
0.5 | CC(C)c1ccc(N(c2ccccc2)c2c3ccc(C(C)(C)C)cc3c(N(c3ccccc3)c3ccc(C(C)C)cc3)c3ccc(C(C)(C)C)cc23)cc1 [EM142]
0.5 | Cc1ccc(N(c2ccc(C)cc2)c2c3ccc(C(C)(C)C)cc3c(N(c3ccc(C)cc3)c3ccc(C)cc3)c3ccc(C(C)(C)C)cc23)cc1 [EM143]
0.5 | Cc1ccc(N(c2ccc(C(C)C)cc2)c2c3ccc(C(C)(C)C)cc3c(N(c3ccc(C)cc3)c3ccc(C(C)C)cc3)c3ccc(C(C)(C)C)cc23)cc1 [EM144]
0.5 | Cc1ccc(N(c2ccc(C)c(C)c2)c2c3ccc(C(C)(C)C)cc3c(N(c3ccc(C)c(C)c3)c3ccc(C)c(C)c3)c3ccc(C(C)(C)C)cc23)cc1C [EM145]
0.5 | Cc1cccc(N(c2cccc(C(C)C)c2)c2c3ccc(C(C)(C)C)cc3c(N(c3cccc(C)c3)c3cccc(C(C)C)c3)c3ccc(C(C)(C)C)cc23)c1 [EM146]
1 | Cc1cccc(N(c2ccc(C)c(C)c2)c2c3ccc(C(C)(C)C)cc3c(N(c3cccc(C)c3)c3ccc(C)c(C)c3)c3ccc(C(C)(C)C)cc23)c1 [EM147]
0.5 | CC(C)(C)c1ccc2c(N(c3ccc4ccccc4c3)c3ccc4ccccc4c3)c3cc(C(C)(C)C)ccc3c(N(c3ccc4ccccc4c3)c3ccc4ccccc4c3)c2c1 [EM148]
0.5 | Cc1cccc(N(c2cccc(C)c2)c2c3ccc(C(C)C)cc3c(N(c3cccc(C)c3)c3cccc(C)c3)c3ccc(C(C)C)cc23)c1 [EM149]
0.5 | c1ccc(N(c2ccc3ccccc3c2)c2c3ccccc3c(N(c3ccccc3)c3ccc4ccccc4c3)c3cc(C4CCCCC4)ccc23)cc1 [EM174]
0.5 | Cc1cccc(N(c2cccc(C)c2)c2c3ccccc3c(N(c3cccc(C)c3)c3cccc(C)c3)c3cc(C4CC5CCC4C5)ccc23)c1 (centres unmarked) [EM175]
0.5 | Cc1ccc(N(c2ccc(C(C)C)cc2)c2c3ccccc3c(N(c3ccc(C)cc3)c3ccc(C(C)C)cc3)c3cc(C45CC6CC(CC(C6)C4)C5)ccc23)cc1 [EM176]
0.5 | CC(C)c1ccc(N(c2ccccc2)c2c3ccccc3c(N(c3ccccc3)c3ccc(C(C)C)cc3)c3cc(C45CC6CC(CC(C6)C4)C5)ccc23)cc1 [EM177]

Same assay, conditions: Table 3

Structure (SMILES) | Solubility (%)
CCC(C)c1ccc(N(c2ccc(-c3ccccc3)cc2)c2ccc(N(c3ccc(-c4ccccc4)cc3)c3ccc(C(C)CC)cc3)c3ccccc23)cc1 (centres unmarked) [EM191] | 1
c1ccc(-c2cc(N(c3ccc(C4CCCCC4)cc3)c3cc4ccccc4c4ccccc34)c3cc(-c4ccccc4)cc(N(c4ccc(C5CCCCC5)cc4)c4cc5ccccc5c5ccccc45)c3c2)cc1 [EM192] | 1
Cc1ccc(N(c2ccc(C(C)C)cc2)c2ccc3ccc4c(N(c5ccc(C)cc5)c5ccc(C(C)C)cc5)ccc5ccc2c3c54)cc1 [EM193] | 0.5
CC(C)c1ccc(N(c2ccc3ccccc3c2)c2ccc3ccc4c(N(c5ccc(C(C)C)cc5)c5ccc6ccccc6c5)ccc5ccc2c3c54)cc1 [EM194] | 1
Cc1cc(C)cc(N(c2ccc(C(C)C)cc2)c2ccc3ccc4c(N(c5ccc(C(C)C)cc5)c5cc(C)cc(C)c5)ccc5ccc2c3c54)c1 [EM195] | 0.5
CC(C)c1ccc(N(c2ccc(C(C)C)cc2)c2ccc3ccc4c(N(c5ccc(C(C)C)cc5)c5ccc(C(C)C)cc5)ccc5ccc2c3c54)cc1 [EM196] | 1
CC(C)c1ccc(N(c2ccc(C(C)(C)C)cc2)c2ccc3ccc4c(N(c5ccc(C(C)C)cc5)c5ccc(C(C)(C)C)cc5)ccc5ccc2c3c54)cc1 [EM197] | 1
CC(C)c1ccc(N(c2ccc(C(C)C)cc2)c2c3ccccc3c(N(c3ccc(C(C)C)cc3)c3ccc(C(C)C)cc3)c3ccccc23)cc1 [EM204] | 0.5
CC(C)c1ccc(N(c2ccc(C(C)(C)C)cc2)c2c3ccccc3c(N(c3ccc(C(C)C)cc3)c3ccc(C(C)(C)C)cc3)c3ccccc23)cc1 [EM205] | 0.5
CCc1ccc(N(c2ccc(C(C)CC)cc2)c2c3ccccc3c(-c3c4ccccc4c(N(c4ccc(CC)cc4)c4ccc(C(C)CC)cc4)c4ccccc34)c3ccccc23)cc1 (centres unmarked) [EM206] | 0.5
CC(C)c1ccc(N(c2cccc(-c3ccccc3)c2)c2c3ccccc3c(-c3c4ccccc4c(N(c4ccc(C(C)C)cc4)c4cccc(-c5ccccc5)c4)c4ccccc34)c3ccccc23)cc1 [EM207] | 0.5
Cc1cc(C)cc(N(c2ccc(C(C)C)cc2)c2c3ccccc3c(-c3c4ccccc4c(N(c4ccc(C(C)C)cc4)c4cc(C)cc(C)c4)c4ccccc34)c3ccccc23)c1 [EM208] | 1
Cc1ccc(N(c2ccc(C(C)C)cc2)c2c3ccccc3c(-c3c4ccccc4c(N(c4ccc(C)cc4)c4ccc(C(C)C)cc4)c4cc(C(C)(C)C)ccc34)c3ccc(C(C)(C)C)cc23)cc1 [EM209] | 0.5
Cc1ccc(N(c2ccc(C(C)C)cc2)c2c3ccccc3c(N(c3ccc(C)cc3)c3ccc(C(C)C)cc3)c3c2ccc2ccccc23)cc1 [EM210] | 1
Cc1ccc(N(c2ccc(C(C)C)cc2)c2c3ccccc3c(N(c3ccc(C(C)C)cc3)c3ccc(C(C)C)cc3)c3c2ccc2ccccc23)cc1 [EM211] | 1
CC(C)c1ccc(N(c2ccc(C(C)C)cc2)c2cc3c4ccccc4c(N(c4ccc(C(C)C)cc4)c4ccc(C(C)C)cc4)cc3c3ccccc23)cc1 [EM212] | 1
Cc1ccc(N(c2ccc(C(C)C)cc2)c2cc3c4ccccc4c(N(c4ccc(C)cc4)c4ccc(C(C)C)cc4)cc3c3ccccc23)cc1 [EM213] | 0.5
CC(C)c1ccc(N(c2cccc(C(C)(C)C)c2)c2cc3c4ccccc4c(N(c4ccc(C(C)C)cc4)c4cccc(C(C)(C)C)c4)cc3c3ccccc23)cc1 [EM214] | 1
Cc1cc(C)cc(N(c2ccc(C(C)C)cc2)c2cc3c4ccccc4c(N(c4ccc(C(C)C)cc4)c4cc(C)cc(C)c4)cc3c3ccccc23)c1 [EM215] | 1

Same assay, conditions: Table 4

Structure (SMILES) | Solubility (%)
CCC(C)c1ccc(N(c2ccc(/C=C/c3ccc(/C=C/c4ccc(N(c5ccc(C(C)CC)cc5)c5ccc(C(C)CC)cc5)cc4)cc3)cc2)c2ccc(C(C)CC)cc2)cc1 (centres unmarked) [Compound D1] | 0.5
c1ccc(N(c2ccccc2)c2c3ccccc3c(N(c3ccccc3)c3ccccc3)c3ccccc23)cc1 [Compound D3, reference compound] | <0.1
Cc1ccc(N(c2ccc(C)cc2)c2ccc(/C=C/c3ccc(/C=C/c4ccc(N(c5ccc(C)cc5)c5ccc(C)cc5)cc4)cc3)cc2)cc1 [Compound D4, reference compound] | <0.1

Second part, the molecule after the results:

Solubility (%) | Structure (SMILES)
0.5 | Cc1cccc(N(c2cccc(C)c2)c2c3ccccc3c(N(c3cccc(C)c3)c3cccc(C)c3)c3cc(C4CC5CCC4C5)ccc23)c1 (centres unmarked) [EM175]
0.5 | Cc1ccc(N(c2ccc(C(C)C)cc2)c2c3ccccc3c(N(c3ccc(C)cc3)c3ccc(C(C)C)cc3)c3cc(C45CC6CC(CC(C6)C4)C5)ccc23)cc1 [EM176]
0.5 | CC(C)c1ccc(N(c2ccccc2)c2c3ccccc3c(N(c3ccccc3)c3ccc(C(C)C)cc3)c3cc(C45CC6CC(CC(C6)C4)C5)ccc23)cc1 [EM177]

Experiment: Ink solubility, insoluble matter visually observed
Type: physicochemical
Settings: H10: ink of Example 28 with Compound H10 instead of H4
Procedure: (§2) Specifically, samples of a host compound and a dopant compound were blended in a weight ratio of 20:1 in a sample pot, to which a solvent and a viscosity control agent were added.
(§3) Table 5 and Table 6 each show a type of solvent, solid content (wt %), solubility (o: no insoluble matter visually observed, x: insoluble matter visually observed), viscosity and a solution condition after a week.

insoluble matter in the ink (in words) | Structure (SMILES)
no solid matters left undissolved | c1ccc(-c2ccccc2-c2ccc3c(-c4ccccc4)c4ccccc4c(-c4ccccc4)c3c2)cc1 [Compound H10]

Experiment: Ink solution condition after a week (pot life)
Type: physicochemical
Settings: H10: ink of Example 28 with Compound H10 instead of H4
Procedure: as §2, §3

Structure (SMILES) | precipitation within a week / pot life (in words)
c1ccc(-c2ccccc2-c2ccc3c(-c4ccccc4)c4ccccc4c(-c4ccccc4)c3c2)cc1 [Compound H10] | precipitation was not observed after a week
